How the values were obtained:
[1] = Antiproliferative activity against mouse MC3T3-E1 cells; assay type: toxicity, cell-based
[2] = system: A549; test: Antiproliferative activity against human A549 cells; assay type: functional, cell-based
[3] = system: A549; test: Antiproliferative activity against human A549 cells incubated by 48 hrs by MTT assay; assay type: functional, cell-based; settings: A549, 48 h
[4] = system: K562; test: Antiproliferative activity against human K562 cells incubated by 48 hrs by MTT assay; assay type: functional, cell-based; settings: K562, 48 h
[5] = system: HepG2; test: Antiproliferative activity against human HepG2 cells incubated by 48 hrs by MTT assay; assay type: functional, cell-based; settings: HepG2, 48 h
[6] = system: PC-3; test: Antiproliferative activity against human PC-3 cells incubated by 48 hrs by MTT assay; assay type: functional, cell-based; settings: PC-3, 48 h
[7] = system: Hep 3B2; test: Anticancer activity against human Hep3B cells measured after 48 hrs; assay type: functional, cell-based
[8] = system: NCI/ADR-RES; test: Growth inhibition of human MCF7ADR cells assessed as reduction in cell viability; assay type: functional
[9] = system: U-251; test: Growth inhibition of human U-251 cells assessed as reduction in cell viability; assay type: functional
[10] = system: SW-620; test: Growth inhibition of human SW620 cells assessed as reduction in cell viability; assay type: functional
[11] = system: NCI-H522; test: Growth inhibition of human NCI-H522 cells assessed as reduction in cell viability; assay type: functional
[12] = system: M14; test: Growth inhibition of human M14 cells assessed as reduction in cell viability; assay type: functional
[13] = system: SK-OV-3; test: Growth inhibition of human SK-OV-3 cells assessed as reduction in cell viability; assay type: functional
[14] = system: DU-145; test: Growth inhibition of human DU-145 cells assessed as reduction in cell viability; assay type: functional
[15] = system: A498; test: Growth inhibition of human A498 cells assessed as reduction in cell viability; assay type: functional
[16] = system: Hep 3B2; test: Antiproliferative activity against human Hep3B cells measured after 48 hrs by MTT assay; assay type: functional, cell-based
[17] = system: A549; test: Antiproliferative activity against human A549 cells measured after 48 hrs by MTT assay; assay type: functional, cell-based; settings: A549, 48 h
[18] = system: HCT-116; test: Antiproliferative activity against human HCT-116 cells measured after 48 hrs by MTT assay; assay type: functional, cell-based; settings: HCT-116, 48 h
[19] = system: MDA-MB-231; test: Antiproliferative activity against human MDA-MB-231 cells measured after 48 hrs by MTT assay; assay type: functional, cell-based; settings: MDA-MB-231, 48 h
[20] = system: A549; test: Antiproliferative activity against human A549 cells measured after 48 hrs; assay type: functional, cell-based; settings: A549, 48 h
[21] = system: HCT-116; test: Antiproliferative activity against human HCT-116 cells measured after 48 hrs; assay type: functional, cell-based; settings: HCT-116, 48 h
[22] = system: MDA-MB-231; test: Antiproliferative activity against human MDA-MB-231 cells measured after 48 hrs; assay type: functional, cell-based; settings: MDA-MB-231, 48 h
[23] = system: HT-29; test: Antiproliferative activity against human HT-29 cells; assay type: functional, cell-based
[24] = system: PANC-1; test: Antiproliferative activity against human PANC-1 cells; assay type: functional, cell-based
[25] = system: MDA-MB-231; test: Antiproliferative activity against human MDA-MB-231 cells; assay type: functional, cell-based
[26] = Cytotoxicity activity against human HDF cells; assay type: toxicity, cell-based; settings: HDF cells (NHDF)
[27] = system: MCF7; test: Antiproliferative activity against human MCF7 cells assessed as inhibition of cell growth; assay type: functional, cell-based
[28] = system: A549; test: Antiproliferative activity against human A549 cells assessed as inhibition of cell growth; assay type: functional, cell-based
[29] = system: HeLa; test: Antiproliferative activity against human HeLa cells assessed as inhibition of cell growth; assay type: functional, cell-based
[30] = Cytotoxicity against human HEK293 cells assessed as inhibition of cell growth; assay type: toxicity, cell-based

O=C1c2cc(F)ccc2-n2c1nc1ccccc1c2=O
IC50 [1]: 97 µM
IC50 [2]: 10.9 µM
IC50 [3]: 2.36 µM
IC50 [4]: 2.66 µM
IC50 [5]: 1.97 µM
IC50 [6]: 10.6 µM
IC50 [7]: 4.1 µM

O=C1c2cc3ccccc3cc2-n2c1nc1ccccc1c2=O
GI50 [8]: 15 µM
GI50 [9]: 15 µM
GI50 [10]: 8 µM
GI50 [11]: 50 µM
GI50 [12]: 40 µM
GI50 [13]: 30 µM
GI50 [14]: 50 µM
GI50 [15]: 60 µM

O=c1c2ccccc2nc2n1-c1ccccc1/C2=N\OCCN1CCCC1
GI50 [14]: 2 µM

O=C1c2cc(Cl)ccc2-n2c1nc1ccccc1c2=O
IC50 [1]: > 100 µM
IC50 [2]: 22.6 µM
IC50 [16]: 3.7 µM
IC50 [3]: 4.21 µM
IC50 [4]: 3.67 µM
IC50 [5]: 2.95 µM
IC50 [6]: 8.48 µM

O=C1c2ccccc2-n2c1nc1ccc(F)cc1c2=O
IC50 [3]: 2.34 µM
IC50 [4]: 6.77 µM
IC50 [5]: 5.63 µM
IC50 [6]: 9.7 µM
IC50 [7]: > 20 µM

Cc1ccc2c(c1)C(=O)c1nc3ccccc3c(=O)n1-2
IC50 [7]: 6.5 µM

O=C1c2c(N3CCCCC3)cccc2-n2c1nc1ccccc1c2=O
IC50 [17]: > 100 µM
IC50 [18]: > 100 µM
IC50 [19]: > 100 µM
IC50 [20]: > 100 µM
IC50 [21]: > 100 µM
IC50 [22]: > 100 µM

O=C1c2c(N3CCOCC3)cccc2-n2c1nc1ccccc1c2=O
IC50 [17]: 13.7 µM
IC50 [18]: 90 µM
IC50 [19]: 56.1 µM
IC50 [20]: > 100 µM
IC50 [21]: 1.62 µM
IC50 [22]: 48.3 µM

C=C[C@]1(O)c2ccccc2-n2c1nc1ccccc1c2=O
GI50 [8]: 20 µM
GI50 [10]: 10 µM
GI50 [12]: 8 µM
GI50 [13]: 6 µM
GI50 [14]: 10 µM

C[C@]1(O)c2ccccc2-n2c1nc1ccccc1c2=O
GI50 [8]: > 100 µM
GI50 [9]: > 100 µM
GI50 [10]: > 100 µM
GI50 [11]: > 100 µM
GI50 [12]: > 100 µM
GI50 [13]: > 100 µM
GI50 [14]: > 100 µM
GI50 [15]: > 100 µM

Cc1nn(Cl)c2c1[C@@]1(C(C#N)=C(N)O2)c2ccccc2-n2c1nc1ccccc1c2=O
IC50 [23]: 77.4 µM
IC50 [24]: 49.4 µM
IC50 [25]: 47.9 µM
IC50 [26]: > 100 µM

O=C1c2c(N3CCN(c4ccccn4)CC3)cccc2-n2c1nc1ccccc1c2=O
IC50 [17]: > 100 µM
IC50 [18]: > 100 µM
IC50 [19]: > 100 µM
IC50 [20]: > 100 µM
IC50 [21]: > 100 µM
IC50 [22]: > 100 µM

O=C1C2C=CC=CC2=NC2/C(=N\Nc3nc(-c4ccc(Br)cc4)cs3)c3ccccc3N12 (stereo unspecified)
IC50 [27]: 12.7 µM
IC50 [28]: 16.9 µM
IC50 [29]: 19.3 µM
IC50 [30]: 73.3 µM

O=C1c2c(ccc(F)c2N2CCN(C(=O)c3ccco3)CC2)-n2c1nc1ccccc1c2=O
IC50 [17]: > 100 µM
IC50 [18]: > 100 µM
IC50 [19]: > 100 µM
IC50 [20]: > 100 µM
IC50 [21]: > 100 µM
IC50 [22]: > 100 µM

Cc1n[nH]c2c1[C@@]1(C(C#N)=C(N)O2)c2ccccc2-n2c1nc1ccccc1c2=O
IC50 [23]: 90.4 µM
IC50 [24]: 21.4 µM
IC50 [25]: 60.8 µM
IC50 [26]: > 100 µM

Cc1nn(Cl)c2c1[C@@]1(C(C#N)=CO2)c2cc(-c3cccc(Cl)c3)ccc2-n2c1nc1ccccc1c2=O
IC50 [23]: > 100 µM
IC50 [24]: 60.6 µM
IC50 [25]: 92.8 µM
IC50 [26]: > 100 µM

O=C1c2cc(Br)ccc2-n2c1nc1ccc(F)cc1c2=O
IC50 [7]: 5.8 µM

Cc1nn(Br)c2c1[C@@]1(C(C#N)=CO2)c2cc(-c3ccccc3)ccc2-n2c1nc1ccccc1c2=O
IC50 [23]: > 100 µM
IC50 [24]: 85.3 µM
IC50 [25]: 65.4 µM
IC50 [26]: > 100 µM

Cc1nn(Cl)c2c1[C@@]1(C(C#N)=C(N)O2)c2cc(-c3ccccc3)ccc2-n2c1nc1ccccc1c2=O
IC50 [23]: > 100 µM
IC50 [24]: > 100 µM
IC50 [25]: 62.8 µM
IC50 [26]: > 100 µM

From ChEMBL document CHEMBL5532682, “Recent advances of tryptanthrin and its derivatives as potential anticancer agents” (RSC Med Chem, 2024)
